Source: ChEMBL document CHEMBL3885881, “DrugMatrix”

Species: Rattus norvegicus
Experiment: DrugMatrix - Regimen: Daily Repeat
Format: toxicity, organism-based, Sprague-Dawley
Parameters: regimen Daily Repeat, gender Male, age 6-8 weeks
Details: in vivo, po, route oral GAVAGE, vehicle .5 % CMC; for ABSOLUTE BASOPHIL / ABSOLUTE EOSINOPHIL / ABSOLUTE LYMPHOCYTE / ABSOLUTE MONOCYTE / ABSOLUTE SEGMENTED NEUTROPHIL / BASOPHIL / EOSINOPHIL / ERYTHROCYTE COUNT / HEMATOCRIT / HEMOGLOBIN / LEUKOCYTE COUNT / LYMPHOCYTE / MEAN CORPUSCULAR HEMOGLOBIN / MEAN CORPUSCULAR HEMOGLOBIN CONCENTRATION / MEAN CORPUSCULAR VOLUME / MONOCYTE / NEUTROPHIL / NUCLEATED RED BLOOD CELLS / PLATELET COUNT: tissue Blood; for ALANINE AMINOTRANSFERASE / ALBUMIN / ALKALINE PHOSPHATASE / ASPARTATE AMINOTRANSFERASE / BLOOD UREA NITROGEN / CARBON DIOXIDE / CHLORIDE / CHOLESTEROL / CREATINE PHOSPHOKINASE / CREATININE / GLUCOSE / LACTATE DEHYDROGENASE / LIPASE / PHOSPHORUS / POTASSIUM / SODIUM / TOTAL BILIRUBIN / TOTAL PROTEIN / URIC ACID: tissue Plasma
[1] = 0 mg/kg, 72 h, dose level Control, time 3 day
[2] = 0 mg/kg, 120 h, dose level Control, time 5 day
[3] = 40 mg/kg, 72 h, dose level Low, time 3 day

Compound: C[C@@](Cc1ccc(O)c(O)c1)(NN)C(=O)O.O [CARBIDOPA]
- ABSOLUTE BASOPHIL [1]: 0 CELLS/uL
- ABSOLUTE EOSINOPHIL [1]: 222.83 CELLS/uL
- ABSOLUTE LYMPHOCYTE [1]: 14453 CELLS/uL
- ABSOLUTE MONOCYTE [1]: 0 CELLS/uL
- ABSOLUTE SEGMENTED NEUTROPHIL [1]: 1490.83 CELLS/uL
- BASOPHIL [1]: 0%
- EOSINOPHIL [1]: 1.33%
- ERYTHROCYTE COUNT [1]: 5.76 x10E6/uL
- HEMATOCRIT [1]: 36.52%
- HEMOGLOBIN [1]: 13.45 G/DL
- LEUKOCYTE COUNT [1]: 16.17 x10E3/uL
- LYMPHOCYTE [1]: 89.33%
- MEAN CORPUSCULAR HEMOGLOBIN [1]: 23.37 pg
- MEAN CORPUSCULAR HEMOGLOBIN CONCENTRATION [1]: 36.85 G/DL
- MEAN CORPUSCULAR VOLUME [1]: 63.47 fL
- MONOCYTE [1]: 0%
- NEUTROPHIL [1]: 9.33%
- NUCLEATED RED BLOOD CELLS [1]: 0 /100WBC
- PLATELET COUNT [1]: 1239.5 x10E3/uL
- ALANINE AMINOTRANSFERASE [1]: 43.83 u/L
- ALBUMIN [1]: 4.27 G/DL
- ALKALINE PHOSPHATASE [1]: 398.83 u/L
- ASPARTATE AMINOTRANSFERASE [1]: 81.17 u/L
- BLOOD UREA NITROGEN [1]: 17.67 mg/dL
- CARBON DIOXIDE [1]: 27.5 mmol/L
- CHLORIDE [1]: 99.17 MEQ/L
- CHOLESTEROL [1]: 74 mg/dL
- CREATINE PHOSPHOKINASE [1]: 331.5 u/L
- CREATININE [1]: 0.2 mg/dL
- GLUCOSE [1]: 171.33 mg/dL
- LACTATE DEHYDROGENASE [1]: 241.67 u/L
- LIPASE [1]: 9.5 u/L
- PHOSPHORUS [1]: 12.25 mg/dL
- POTASSIUM [1]: 6.33 MEQ/L
- SODIUM [1]: 141.28 MEQ/L
- TOTAL BILIRUBIN [1]: 0.15 mg/dL
- TOTAL PROTEIN [1]: 5.98 G/DL
- URIC ACID [1]: 1.63 mg/dL
- ABSOLUTE BASOPHIL [2]: 0 CELLS/uL
- ABSOLUTE EOSINOPHIL [2]: 148.67 CELLS/uL
- ABSOLUTE LYMPHOCYTE [2]: 16020.5 CELLS/uL
- ABSOLUTE MONOCYTE [2]: 29.17 CELLS/uL
- ABSOLUTE SEGMENTED NEUTROPHIL [2]: 1468.33 CELLS/uL
- BASOPHIL [2]: 0%
- EOSINOPHIL [2]: 1%
- ERYTHROCYTE COUNT [2]: 5.78 x10E6/uL
- HEMATOCRIT [2]: 35.77%
- HEMOGLOBIN [2]: 13.4 G/DL
- LEUKOCYTE COUNT [2]: 17.67 x10E3/uL
- LYMPHOCYTE [2]: 90.5%
- MEAN CORPUSCULAR HEMOGLOBIN [2]: 23.22 pg
- MEAN CORPUSCULAR HEMOGLOBIN CONCENTRATION [2]: 37.47 G/DL
- MEAN CORPUSCULAR VOLUME [2]: 61.92 fL
- MONOCYTE [2]: 0.17%
- NEUTROPHIL [2]: 8.33%
- NUCLEATED RED BLOOD CELLS [2]: 0.17 /100WBC
- PLATELET COUNT [2]: 1255.5 x10E3/uL
- ALANINE AMINOTRANSFERASE [2]: 46.5 u/L
- ALBUMIN [2]: 4.38 G/DL
- ALKALINE PHOSPHATASE [2]: 336 u/L
- ASPARTATE AMINOTRANSFERASE [2]: 76.5 u/L
- BLOOD UREA NITROGEN [2]: 20 mg/dL
- CARBON DIOXIDE [2]: 27.5 mmol/L
- CHLORIDE [2]: 101 MEQ/L
- CHOLESTEROL [2]: 71.33 mg/dL
- CREATINE PHOSPHOKINASE [2]: 231.83 u/L
- CREATININE [2]: 0.37 mg/dL
- GLUCOSE [2]: 168.83 mg/dL
- LACTATE DEHYDROGENASE [2]: 174 u/L
- LIPASE [2]: 8.67 u/L
- PHOSPHORUS [2]: 11.48 mg/dL
- POTASSIUM [2]: 6.82 MEQ/L
- SODIUM [2]: 143.8 MEQ/L
- TOTAL BILIRUBIN [2]: 0.2 mg/dL
- TOTAL PROTEIN [2]: 5.98 G/DL
- URIC ACID [2]: 1.83 mg/dL
- ABSOLUTE BASOPHIL [3]: 0 CELLS/uL
- ABSOLUTE EOSINOPHIL [3]: 143.67 CELLS/uL
- ABSOLUTE LYMPHOCYTE [3]: 13232.67 CELLS/uL
- ABSOLUTE MONOCYTE [3]: 0 CELLS/uL
- ABSOLUTE SEGMENTED NEUTROPHIL [3]: 1090.33 CELLS/uL
- BASOPHIL [3]: 0%
- EOSINOPHIL [3]: 1%
- ERYTHROCYTE COUNT [3]: 5.57 x10E6/uL
- HEMATOCRIT [3]: 35.7%
- HEMOGLOBIN [3]: 13.3 G/DL
- LEUKOCYTE COUNT [3]: 14.47 x10E3/uL
- LYMPHOCYTE [3]: 91.67%
- MEAN CORPUSCULAR HEMOGLOBIN [3]: 23.87 pg
- MEAN CORPUSCULAR HEMOGLOBIN CONCENTRATION [3]: 37.27 G/DL
- MEAN CORPUSCULAR VOLUME [3]: 64.03 fL
- MONOCYTE [3]: 0%
- NEUTROPHIL [3]: 7.33%
- NUCLEATED RED BLOOD CELLS [3]: 0 /100WBC
- PLATELET COUNT [3]: 1331.33 x10E3/uL
- ALANINE AMINOTRANSFERASE [3]: 40.33 u/L
- ALBUMIN [3]: 4.27 G/DL
- ALKALINE PHOSPHATASE [3]: 388.33 u/L
- ASPARTATE AMINOTRANSFERASE [3]: 77 u/L
- BLOOD UREA NITROGEN [3]: 14 mg/dL
- CARBON DIOXIDE [3]: 29 mmol/L
- CHLORIDE [3]: 100.67 MEQ/L
- CHOLESTEROL [3]: 72.33 mg/dL
- CREATINE PHOSPHOKINASE [3]: 210.67 u/L
- CREATININE [3]: 0.21 mg/dL
- GLUCOSE [3]: 156 mg/dL
- LACTATE DEHYDROGENASE [3]: 151.33 u/L
- LIPASE [3]: 8.33 u/L
- PHOSPHORUS [3]: 12.9 mg/dL
- POTASSIUM [3]: 6.71 MEQ/L
- SODIUM [3]: 144.3 MEQ/L
- TOTAL BILIRUBIN [3]: 0.23 mg/dL
- TOTAL PROTEIN [3]: 5.9 G/DL
- URIC ACID [3]: 1.83 mg/dL
